The values below come from ChEMBL document CHEMBL6114992, “Design, synthesis, biological evaluation, and mechanism of action of new pyrazines as anticancer agents in vitro and in vivo” (Bioorg Med Chem, 2025).

The source made the active and inactive calls. No cut-off for these calls is given here.

In series [1] the test system is THP-1. As to the kind of experiment: Induction of apoptosis in human THP-1 cells assessed as early apoptotic cells at 0.5 uM incubated for 48 hrs by Annexin V-FITC/PI staining based flow cytometry (reference value: 0.45 %). The series is classed as functional. On the technique in general: Flow cytometry measures light scatter and fluorescence of single cells or particles in a stream.

The test system of series [2] is THP-1. As to the kind of experiment: Induction of apoptosis in human THP-1 cells assessed as necrotic cells at 0.5 uM incubated for 48 hrs by Annexin V-FITC/PI staining based flow cytometry (reference value: 2.48 %). The series is classed as functional.
For series [3], the system named is THP-1. As to the kind of experiment: Induction of apoptosis in human THP-1 cells assessed as late apoptotic cells at 1 uM incubated for 48 hrs by Annexin V-FITC/PI staining based flow cytometry (reference value: 0.74 %). Format: functional.
The subject of series [4] is THP-1. Kind of series: Induction of apoptosis in human THP-1 cells assessed as change in mitochondrial membrane potential at 2.5 uM incubated for 48 hrs by JC-1 staining based flow cytometry (reference value: 5.15 %). Format: functional.
Series [5] deals with KG-1. As to the kind of experiment: Upregulation of p21 expression in human KG-1 cells incubated for 48 hrs by Western blot analysis. The series is classed as functional, cell-based. The conditions noted are these: dose 0.5-2.5 µM.
The subject of series [6] is KG-1. Kind of series: Upregulation of Bax expression in human KG-1 cells incubated for 48 hrs by Western blot analysis. Format: functional, cell-based. As to conditions: dose 0.5-2.5 µM.
Series [7] relates to THP-1. As to the kind of experiment: Downregulation of Bcl-XL expression in human THP-1 cells incubated for 48 hrs by Western blot analysis. Format: functional, cell-based. The conditions noted are these: dose 0.5-2.5 µM. For orientation: A western blot detects proteins with antibodies after separation by electrophoresis.
Series [8] deals with KG-1. As to the kind of experiment: Downregulation of YAP1 expression in human KG-1 cells incubated for 48 hrs by Western blot analysis. The series is classed as functional, cell-based. As to conditions: dose 0.5-2.5 µM.
Series [9] has as its system KG-1. As to the kind of experiment: Downregulation of c-Myc expression in human KG-1 cells incubated for 48 hrs by Western blot analysis. The series is classed as functional, cell-based. The conditions noted are these: dose 0.5-2.5 µM.
The test system of series [10] is SK-OV-3. As to the kind of experiment: Downregulation of c-Myc expression in human SK-OV-3 cells incubated for 48 hrs by Western blot analysis. The series is classed as functional, cell-based. As to conditions: dose 0.5-2.5 µM.
The test system of series [11] is THP-1. Kind of series: Downregulation of c-Myc expression in human THP-1 cells incubated for 48 hrs by Western blot analysis. Format: functional, cell-based. As to conditions: dose 0.5-2.5 µM.
Series [12] has as its target Signal transducer and activator of transcription 3 (Homo sapiens) (UniProt P40763). As to the kind of experiment: Inhibition of STAT3 phosphorylation in human SK-OV-3 cells at 0.5 to 2.5 uM incubated for 48 hrs by Western blot analysis. Format: cell-based. As to conditions: dose 0.5-2.5 µM.
The subject of series [13] is U-937. As to the kind of experiment: Induction of apoptosis in human U-937 cells assessed as early apoptotic cells at 0.5 uM incubated for 48 hrs by Annexin V-FITC/PI staining based flow cytometry (reference value: 2.72 %). Format: functional.
The test system of series [14] is U-937. As to the kind of experiment: Induction of apoptosis in human U-937 cells assessed as late apoptotic cells at 0.5 uM incubated for 48 hrs by Annexin V-FITC/PI staining based flow cytometry (reference value: 1.96 %). Format: functional.
In series [15] the test system is U-937. As to the kind of experiment: Induction of apoptosis in human U-937 cells assessed as viable cells at 1 uM incubated for 48 hrs by Annexin V-FITC/PI staining based flow cytometry (reference value: 93.30 %). Format: functional. The conditions noted are these: read-out: Activity.
Series [16] has as its system U-937. As to the kind of experiment: Induction of apoptosis in human U-937 cells assessed as early apoptotic cells at 1 uM incubated for 48 hrs by Annexin V-FITC/PI staining based flow cytometry (reference value: 2.72 %). Format: functional.
The test system of series [17] is U-937. Kind of series: Induction of apoptosis in human U-937 cells assessed as late apoptotic cells at 1 uM incubated for 48 hrs by Annexin V-FITC/PI staining based flow cytometry (reference value: 1.96 %). Format: functional.
In series [18] the test system is U-937. As to the kind of experiment: Induction of apoptosis in human U-937 cells assessed as necrotic cells at 1 uM incubated for 48 hrs by Annexin V-FITC/PI staining based flow cytometry (reference value: 2.03 %). Format: functional.
The test system of series [19] is U-937. Kind of series: Induction of apoptosis in human U-937 cells assessed as viable cells at 2.5 uM incubated for 48 hrs by Annexin V-FITC/PI staining based flow cytometry (reference value: 93.30 %). The series is classed as functional. As to conditions: read-out: Activity.
Series [20] has as its system U-937. As to the kind of experiment: Induction of apoptosis in human U-937 cells assessed as early apoptotic cells at 2.5 uM incubated for 48 hrs by Annexin V-FITC/PI staining based flow cytometry (reference value: 2.72 %). The series is classed as functional.
The test system of series [21] is U-937. Kind of series: Induction of apoptosis in human U-937 cells assessed as late apoptotic cells at 2.5 uM incubated for 48 hrs by Annexin V-FITC/PI staining based flow cytometry (reference value: 1.96 %). Format: functional.
For series [22], the system named is U-937. As to the kind of experiment: Induction of apoptosis in human U-937 cells assessed as necrotic cells at 2.5 uM incubated for 48 hrs by Annexin V-FITC/PI staining based flow cytometry (reference value: 2.03 %). Format: functional.
Series [23] concerns U-937. As to the kind of experiment: Induction of apoptosis in human U-937 cells assessed as change in mitochondrial membrane potential at 1 uM incubated for 48 hrs by JC-1 staining based flow cytometry (reference value: 2.20 %). The series is classed as functional.
Series [24] deals with U-937. Kind of series: Induction of apoptosis in human U-937 cells assessed as change in mitochondrial membrane potential at 2.5 uM incubated for 48 hrs by JC-1 staining based flow cytometry (reference value: 2.20 %). The series is classed as functional.
In series [25] the test system is U-937. Kind of series: Induction of apoptosis in human U-937 cells assessed as change in mitochondrial membrane potential at 5 uM incubated for 48 hrs by JC-1 staining based flow cytometry (reference value: 2.20 %). Format: functional.
For series [26], the system named is U-937. Kind of series: Upregulation of p21 expression in human U-937 cells incubated for 48 hrs by Western blot analysis. Format: functional, cell-based.
The test system of series [27] is U-937. Kind of series: Downregulation of TAZ expression in human U-937 cells incubated for 48 hrs by Western blot analysis. Format: functional, cell-based. The conditions noted are these: dose 0.5-2.5 µM.
Series [28] concerns THP-1. Kind of series: Downregulation of Bcl-2 expression in human THP-1 cells incubated for 48 hrs by Western blot analysis. Format: functional, cell-based. The conditions noted are these: dose 0.5-2.5 µM.
In series [29] the target is Signal transducer and activator of transcription 3 (Homo sapiens) (UniProt P40763). As to the kind of experiment: Inhibition of STAT3 phosphorylation in human SK-OV-3 cells at 1 to 5 uM incubated for 48 hrs by Western blot analysis. Format: cell-based. As to conditions: dose 1-5 µM.
Chain of Signal transducer and activator of transcription 3 (Homo sapiens) (P40763 whole entry): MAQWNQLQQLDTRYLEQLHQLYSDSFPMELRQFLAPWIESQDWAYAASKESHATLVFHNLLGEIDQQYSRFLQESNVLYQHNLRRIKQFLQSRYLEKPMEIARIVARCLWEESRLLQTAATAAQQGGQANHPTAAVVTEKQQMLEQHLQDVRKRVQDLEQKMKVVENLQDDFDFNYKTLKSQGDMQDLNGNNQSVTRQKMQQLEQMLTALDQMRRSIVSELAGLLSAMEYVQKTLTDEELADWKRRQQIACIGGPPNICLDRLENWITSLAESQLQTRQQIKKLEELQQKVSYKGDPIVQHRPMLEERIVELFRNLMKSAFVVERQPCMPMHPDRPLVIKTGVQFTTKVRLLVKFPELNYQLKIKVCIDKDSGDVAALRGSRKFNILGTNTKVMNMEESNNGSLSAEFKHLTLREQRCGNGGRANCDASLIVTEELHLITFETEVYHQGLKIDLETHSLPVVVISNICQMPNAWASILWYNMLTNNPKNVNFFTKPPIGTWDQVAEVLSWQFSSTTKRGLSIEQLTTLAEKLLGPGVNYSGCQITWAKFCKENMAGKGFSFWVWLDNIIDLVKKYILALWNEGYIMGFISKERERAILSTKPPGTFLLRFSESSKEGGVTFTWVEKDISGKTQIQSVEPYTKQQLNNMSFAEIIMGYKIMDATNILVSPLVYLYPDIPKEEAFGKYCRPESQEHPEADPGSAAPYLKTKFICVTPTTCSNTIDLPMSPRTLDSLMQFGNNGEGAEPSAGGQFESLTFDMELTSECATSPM
In series [30] the test system is SK-OV-3. Kind of series: Antitumor activity against human SK-OV-3 cells xenografted in nude mouse assessed as tumor growth suppression at 30 to 60 mg/kg, ip qd treated for 14 days. Format: functional, organism-based. As to conditions: dose 30-60 mg/kg, time 14.0 day. On the technique in general: A xenograft is tissue or cells of one species grown in another, often human tumour cells in immunodeficient mice.

Series [31] can be described thus: Toxicity in nude mouse xenografted with human SK-OV-3 cells assessed as body weight change at 30 to 60 mg/kg, ip qd treated for 14 days. Format: organism-based. As to conditions: in vivo, 336 h, dose 30-60 mg/kg, time 14 day.
A short description of series [32]: Toxicity in nude mouse xenografted with human SK-OV-3 cells assessed as histopathological change in heart at 30 to 60 mg/kg, ip qd treated for 14 days by H and E staining based analysis. The series is classed as organism-based. The conditions noted are these: in vivo, 336 h, dose 30-60 mg/kg, time 14 day.
The nature of series [33]: Toxicity in nude mouse xenografted with human SK-OV-3 cells assessed as histopathological change in liver at 30 to 60 mg/kg, ip qd treated for 14 days by H and E staining based analysis. The series is classed as organism-based. The conditions noted are these: in vivo, 336 h, dose 30-60 mg/kg, time 14 day.
Series [34] can be described thus: Toxicity in nude mouse xenografted with human SK-OV-3 cells assessed as histopathological change in spleen at 30 to 60 mg/kg, ip qd treated for 14 days by H and E staining based analysis. Format: organism-based. As to conditions: in vivo, 336 h, dose 30-60 mg/kg, time 14 day.
A short description of series [35]: Toxicity in nude mouse xenografted with human SK-OV-3 cells assessed as histopathological change in kidney at 30 to 60 mg/kg, ip qd treated for 14 days by H and E staining based analysis. Format: organism-based. As to conditions: in vivo, 336 h, dose 30-60 mg/kg, time 14 day.
A short description of series [36]: Toxicity in nude mouse xenografted with human SK-OV-3 cells assessed as histopathological change in lungs at 30 to 60 mg/kg, ip qd treated for 14 days by H and E staining based analysis. Format: organism-based. The conditions noted are these: in vivo, 336 h, dose 30-60 mg/kg, time 14 day.

Regarding `CCc1nccnc1C(=O)/C=C/c1ccccn1`, the Activity is 2.51% in the series on THP-1 [1]; 2.41% with THP-1 [2]; 1.73% in the series with THP-1 [3]; 26.66% in the series on THP-1 [4]; “Dose-dependent-effect” in the series with KG-1 [5]; “Dose-dependent-effect” with KG-1 [6]. Further, the Activity result with THP-1 [7], with KG-1 [8], in the series with KG-1 [9], in the series with SK-OV-3 [10] and in the series with THP-1 [11] was “Dose-dependent-effect” throughout. Further, the inhibition entry in series [12] is “Active”.
For the molecule `Cc1nccnc1C(=O)/C=C/c1cccc(C#N)c1`, the Activity in the series with THP-1 [1] is 3.41%; with THP-1 [2], 1.78%; in the series on THP-1 [3] it was 1.94%; in the series on U-937 [13], 9.68%; in the series with U-937 [14] it was 6.79%; with U-937 [16] it was 10.98%. Further, the Activity stood at 9.69% in the series on U-937 [17]; 3.14% in the series on U-937 [18]; 11.68% in the series with U-937 [20]; 9.73% with U-937 [21]; 3.09% in the series on U-937 [22]; 29.42% in the series on THP-1 [4]. For the same molecule, the Activity in the series with U-937 [23] is 3.68%; in the series with U-937 [24], 4.53%; in the series with U-937 [25], 21.63%; with U-937 [26], “Dose-dependent-effect”; in the series on U-937 [27] it was “Dose-dependent-effect”; with THP-1 [28] it was “Dose-dependent-effect”. The Activity result in series [31], in [32], in series [33], in series [34], in [35] and in series [36] was “Non-toxic” each time. Also, the viability at 1 µM in the series with U-937 [15] was 76.2%. Moreover, the viability at 2.5 µM with U-937 [19] amounted to 75.5%. For the same molecule, in series [29], the inhibition result is “Active”. Further, in the series on SK-OV-3 [30], the outcome was Active.
